Laboratory results as given in US20050277696A1, “Novel use of cytotoxic drugs for treatment and prophylasxis of aging diseases by reversing the loss of elasticity of epithelial cells due to aging” (priority 2004, published 2005).

Tested on: human epithelial cells
Assay: clonal growth of human epithelial cells in cell culture over 7 days (surviving colonies counted)
Type: cell-based
Text: Therefore, before the comparison of results based on rigidity of older cells against younger and more elastic cells, the proper concentration of the drug must be found. Dissolved in an appropriate solvent (for example, dimethylsulfoxide for Cytochalasin D, B and Latrunculin A, B, Jasplakinolide), the drug should be added to the cell culture medium. […] The amount of the drug should not be in such a high concentration that would result in the destruction of the cells. As an example, when the treatment of the old cells is done with Cytochalasin B, a cell permeable fungal toxin which binds to the barbed end of actin filaments and results in the inhibition of both the association and dissociation of its subunits, a 4 μg/mL solution of Cytochalasin B in the medium was optimal to treat viable cells for 12 hours. This concentration was determined by performing experiments to measure clonal growth of human epithelial cells in cell culture over 7 days in different concentrations of the drug. The number of surviving colonies of cells was counted to determine the range of concentrations that were non-toxic or non-cytostatic. This range was from 1.0 to 10 μg/mL. The determination of the appropriate concentration of a cytotoxic drug is dependent upon the particular drug of choice, but one skilled in the art would recognize methods to determine the appropriate drug concentration.

Which results are given for `C=C1[C@@H](C)[C@H]2[C@H](Cc3ccccc3)NC(=O)[C@]23OC(=O)/C=C/[C@H](O)CCC[C@@H](C)C/C=C/[C@H]3[C@@H]1O` [Cytochalasin B]?
range of concentrations that were non-toxic or non-cytostatic (clonal growth over 7 days in different concentrations of the drug, number of surviving colonies counted): 1.0 to 10 µg/mL; optimal concentration in the medium to treat viable cells (old cells, treatment for 12 hours, solution in the medium): 4 µg/mL
